# In ChEMBL document CHEMBL5241077 (Eur J Med Chem, 2021):
# Tests used:
# dengue virus type 2 [1] = test: Antiviral activity against DENV2 infected hamster BHK cells assessed as inhibition of virus-induced cytopathogenicity and measured after 20 hrs by flow cytometry; type: functional, organism-based
# [2] = Binding affinity to Dengue virus serotype 2 envelope stem (419 to 447 residues) trimer peptide incubated for 3 hrs by fluorescence polarization assay; parameters: species or system dengue virus type 2
# dengue virus type 2 [3] = test: Antiviral activity against DENV2 TSV01 infected in Asian tiger mosquito C6/36 cells assessed as reduction in plaque forming unit incubated for 1 hrs by propidium iodide staining based fluorescence analysis; type: functional, organism-based; conditions: TSV01, C6/36, 1 h
# dengue virus type 2 [4] = test: Antiviral activity against DENV2 PL046 infected in hamster BHK-21 cells assessed as reduction in plaque forming unit incubated for 7 days by crystal violet staining analysis; type: functional, organism-based; conditions: PL046, BHK-21, 168 h
# dengue virus type 2 [5] = test: Antiviral activity against DENV2 ThNH-7/93 infected in hamster BHK-21 cells assessed as reduction in virus titer incubated for 2 hrs by focus forming assay; type: functional, organism-based; conditions: ThNH-7/93, BHK-21, 2 h
# dengue virus type 2 [6] = test: Antiviral activity against DENV2 infected in African green monkey Vero E6 cells assessed as inhibition of viral replication incubated for 5 days by crystal violet staining based plaque reduction assay; type: functional, organism-based; conditions: 120 h
# dengue virus type 2 [7] = test: Antiviral activity against DENV2 infected in human HEK293 cells assessed as reduction in viral load incubated for 3 days by plaque reduction assay; type: functional; conditions: HEK293, 72 h, time 3 day
# dengue virus type 2 [8] = test: Antiviral activity against DENV2 ThNH-7/93 infected in hamster BHK-21 cells assessed as reduction in viral entry incubated for 2 hrs by focus forming assay; type: functional, organism-based; conditions: ThNH-7/93, BHK-21, 2 h
# dengue virus type 2 [9] = test: Antiviral activity against DENV2 16681 infected in African green monkey Vero E6 cells assessed as inhibition of virus-induced cytopathic effect incubated for 1.5 hrs by plaque assay; type: functional, organism-based; conditions: Dengue virus, 16681, Vero
# dengue virus type 2 [10] = test: Antiviral activity against DENV2 infected in African green monkey Vero E6 cells assessed as inhibition of viral titer incubated for 48 hrs by plaque reduction assay; type: functional, organism-based
# dengue virus type 2 [11] = test: Antiviral activity against DENV2 […] infected in hamster BHK-21 cells assessed as reduction viral titer incubated for 48 hrs by plaque assay; type: functional, organism-based; conditions: BHK-21, 48 h
# dengue virus type 2 [12] = test: Antiviral activity against DENV2 New Guinea C infected in hamster BHK-21 cells assessed as reduction viral titer incubated for 48 hrs by plaque assay; type: functional, organism-based; conditions: BHK-21, 48 h
structure (smiles),measurement,setting,value
O=S(=O)(O)O[C@@H]1[C@@H](OS(=O)(=O)O)[C@H](O[C@@H]2CO[C@@H](O)[C@H](OS(=O)(=O)O)[C@H]2OS(=O)(=O)O)OC[C@H]1O,EC50,dengue virus type 2 [1],30 µg/mL
N#C/C(=N\Nc1cccc(Cl)c1)C(=O)c1ccco1,IC50,[2],15 µM
O=C(O)c1cc(=O)c2ccc(S[C@@H](/C=C/C=C/CCOc3ccc(Cl)c(Cl)c3)[C@H](O)c3cccc(C(F)(F)F)c3)cc2o1,IC50,dengue virus type 2 [3],6.8 µM
CN(C)[C@@H]1C(O)=C(C(=O)NCN2CCCC2)C(=O)[C@@]2(O)C(O)=C3C(=O)c4c(O)cccc4[C@@](C)(O)[C@H]3C[C@@H]12 [ROLITETRACYCLINE],IC50,dengue virus type 2 [4],67.1 µM
C[C@@H]1O[C@H](C)[C@@H](O)[C@H](O)[C@@H]1OS(=O)(=O)O,IC50,dengue virus type 2 [5],4.7 µg/mL
O=C1O[C@H]2[C@@H]3OC(=O)c4cc(O)c(O)c(O)c4-c4c(cc(O)c(O)c4O)C(=O)OC[C@H]2O[C@@H](OC(=O)c2cc(O)c(O)c(O)c2)[C@@H]3OC(=O)c2cc(O)c(O)c3c2[C@@H]2C1=CC(=O)[C@](O)(O3)C2(O)O [GERANIIN],IC50,dengue virus type 2 [6],1750 nM
Nc1c(C(=O)Nc2nc(-c3ccccc3)cs2)sc2nc3c(cc12)CC(c1ccccc1)CC3 (stereo not given),IC90,dengue virus type 2 [7],112 nM
CC(=O)N[C@@H]1[C@@H](O[C@@H]2O[C@H](C(=O)O)[C@@H](O)[C@H](O)[C@H]2O)[C@@H](O)[C@@H](OS(=O)(=O)O)O[C@H]1O,EC50,dengue virus type 2 [8],1.5 µg/mL
O=C(O)C[C@@H]1C(=O)O[C@H]2[C@@H]3OC(=O)c4cc(O)c(O)c(O)c4-c4c(cc(O)c(O)c4O)C(=O)OC[C@H]2O[C@@H](OC(=O)c2cc(O)c(O)c(O)c2)[C@@H]3OC(=O)c2cc(O)c(O)c3c2[C@H]1[C@H](O)C(=O)O3 [CHEBULAGIC ACID],EC50,dengue virus type 2 [9],13.1 µM
CO[C@H]1O[C@H](COS(=O)(=O)O)[C@H](O[C@@H]2O[C@H](CO)[C@H](O)[C@H](C)[C@H]2OS(=O)(=O)O)[C@H](O)[C@H]1OS(=O)(=O)O,IC50,dengue virus type 2 [10],0.14 µg/mL
Nc1c(C(=O)Nc2nc(-c3ccccc3)cs2)sc2nc3c(cc12)CN(c1ccccc1)CC3,IC90,dengue virus type 2 [7],25 nM
CC(=O)N[C@@H]1[C@@H](O[C@@H]2O[C@@H](C(=O)O)[C@@H](O)[C@H](O)[C@H]2O)[C@@H](OS(=O)(=O)O)[C@@H](CO)O[C@H]1O,IC50,dengue virus type 2 [11],0.3 µg/mL
same,IC50,dengue virus type 2 [12],3 µg/mL
C[C@H]1c2cccc(O)c2C(=O)C2=C(O)[C@]3(O)C(=O)C(C(N)=O)=C(O)[C@@H](N(C)C)[C@@H]3[C@@H](O)[C@@H]21 [DOXYCYCLINE],IC50,dengue virus type 2 [4],55.6 µM
O=P(O)(O)OC[C@H]1O[C@H](OC2[C@H](OS(=O)(=O)O)[C@@H](OC3C(OS(=O)(=O)O)O[C@H](COS(=O)(=O)O)[C@@H](OS(=O)(=O)O)[C@@H]3OS(=O)(=O)O)O[C@H](COS(=O)(=O)O)[C@H]2OS(=O)(=O)O)[C@@H](OS(=O)(=O)O)[C@@H](OS(=O)(=O)O)[C@@H]1OS(=O)(=O)O (stereo not given in full),EC50,dengue virus type 2 [1],200 µg/mL
